Like-named read-outs stand apart in the source and are kept apart here.
Columns and labels:
[1] = target: human TYK2 (JH2domain-pseudokinase) (Homo sapiens (Human), UniProt P29597); assay: TYK2 JH2 Domain Binding Assay (KINOMEscan)
How it was run: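 Competition binding of an NFkB-DBD fusion of human TYK2 JH2 (G556–D888), expressed in HEK293 and used as crude extract at <0.1 nM, against immobilized ligand beads; 1 h at room temperature in PBS/Tween/DTT/BSA buffer, 0.9% DMSO.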

[2] = target: Tyk2/JAK2 (heterodimeric complex) (Homo sapiens (Human), UniProt P29597); assay: IL-12 Induced pSTAT4 in Human PBMC; assay type: cell-based; details: 1.7 ng/mL IL-12
Sequence of Tyk2/JAK2 (heterodimeric complex) (P29597 whole entry, other chains not shown): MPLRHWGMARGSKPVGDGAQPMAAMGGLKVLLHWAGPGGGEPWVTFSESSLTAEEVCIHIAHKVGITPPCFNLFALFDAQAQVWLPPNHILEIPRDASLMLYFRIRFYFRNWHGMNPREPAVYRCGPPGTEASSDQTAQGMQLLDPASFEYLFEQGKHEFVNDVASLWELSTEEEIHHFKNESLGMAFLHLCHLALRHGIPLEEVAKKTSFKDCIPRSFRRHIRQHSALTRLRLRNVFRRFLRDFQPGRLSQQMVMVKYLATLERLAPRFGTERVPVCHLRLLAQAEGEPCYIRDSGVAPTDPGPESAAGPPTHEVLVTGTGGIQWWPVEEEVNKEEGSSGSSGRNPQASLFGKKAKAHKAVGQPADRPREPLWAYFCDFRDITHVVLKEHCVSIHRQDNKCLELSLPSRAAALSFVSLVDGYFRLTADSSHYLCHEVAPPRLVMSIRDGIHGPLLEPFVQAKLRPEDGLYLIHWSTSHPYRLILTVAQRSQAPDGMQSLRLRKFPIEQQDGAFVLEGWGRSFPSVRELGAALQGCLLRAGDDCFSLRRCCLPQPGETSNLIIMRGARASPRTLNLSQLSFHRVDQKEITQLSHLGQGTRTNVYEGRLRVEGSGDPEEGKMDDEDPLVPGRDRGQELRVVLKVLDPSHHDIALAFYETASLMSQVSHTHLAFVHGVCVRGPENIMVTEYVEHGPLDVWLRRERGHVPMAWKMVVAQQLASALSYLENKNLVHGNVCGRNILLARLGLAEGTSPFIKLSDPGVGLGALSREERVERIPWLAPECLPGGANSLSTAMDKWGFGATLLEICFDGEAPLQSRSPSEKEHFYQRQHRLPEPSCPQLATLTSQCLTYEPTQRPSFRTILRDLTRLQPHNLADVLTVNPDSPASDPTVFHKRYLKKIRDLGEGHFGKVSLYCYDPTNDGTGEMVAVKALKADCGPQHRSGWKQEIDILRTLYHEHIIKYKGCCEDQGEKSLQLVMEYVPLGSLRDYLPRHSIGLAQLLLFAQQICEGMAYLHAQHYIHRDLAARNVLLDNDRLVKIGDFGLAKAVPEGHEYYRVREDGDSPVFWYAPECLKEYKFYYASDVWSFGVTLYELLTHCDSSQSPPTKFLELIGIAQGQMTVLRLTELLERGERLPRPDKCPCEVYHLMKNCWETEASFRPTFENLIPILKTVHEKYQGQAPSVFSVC
Excerpt: The IL-12 Induced pSTAT4 assay evaluates the inhibition of IL-12 induced STAT4 phophorylation mediated by Tyk2/JAK2 (heterodimeric complex).

[3] = target: JAK2/JAK2 homdimeric complex (Homo sapiens (Human), UniProt O60674); assay: GM-CSF Induced pSTAT5 in Human PBMC; assay type: cell-based; details: GM-CSF 5 ng/mL for 20 minutes, pSTAT5 by MSD, read-out: PBMC_GMCSF_pSTAT5 IC50
Sequence of JAK2/JAK2 homdimeric complex (O60674 whole entry, the tested form may be a part): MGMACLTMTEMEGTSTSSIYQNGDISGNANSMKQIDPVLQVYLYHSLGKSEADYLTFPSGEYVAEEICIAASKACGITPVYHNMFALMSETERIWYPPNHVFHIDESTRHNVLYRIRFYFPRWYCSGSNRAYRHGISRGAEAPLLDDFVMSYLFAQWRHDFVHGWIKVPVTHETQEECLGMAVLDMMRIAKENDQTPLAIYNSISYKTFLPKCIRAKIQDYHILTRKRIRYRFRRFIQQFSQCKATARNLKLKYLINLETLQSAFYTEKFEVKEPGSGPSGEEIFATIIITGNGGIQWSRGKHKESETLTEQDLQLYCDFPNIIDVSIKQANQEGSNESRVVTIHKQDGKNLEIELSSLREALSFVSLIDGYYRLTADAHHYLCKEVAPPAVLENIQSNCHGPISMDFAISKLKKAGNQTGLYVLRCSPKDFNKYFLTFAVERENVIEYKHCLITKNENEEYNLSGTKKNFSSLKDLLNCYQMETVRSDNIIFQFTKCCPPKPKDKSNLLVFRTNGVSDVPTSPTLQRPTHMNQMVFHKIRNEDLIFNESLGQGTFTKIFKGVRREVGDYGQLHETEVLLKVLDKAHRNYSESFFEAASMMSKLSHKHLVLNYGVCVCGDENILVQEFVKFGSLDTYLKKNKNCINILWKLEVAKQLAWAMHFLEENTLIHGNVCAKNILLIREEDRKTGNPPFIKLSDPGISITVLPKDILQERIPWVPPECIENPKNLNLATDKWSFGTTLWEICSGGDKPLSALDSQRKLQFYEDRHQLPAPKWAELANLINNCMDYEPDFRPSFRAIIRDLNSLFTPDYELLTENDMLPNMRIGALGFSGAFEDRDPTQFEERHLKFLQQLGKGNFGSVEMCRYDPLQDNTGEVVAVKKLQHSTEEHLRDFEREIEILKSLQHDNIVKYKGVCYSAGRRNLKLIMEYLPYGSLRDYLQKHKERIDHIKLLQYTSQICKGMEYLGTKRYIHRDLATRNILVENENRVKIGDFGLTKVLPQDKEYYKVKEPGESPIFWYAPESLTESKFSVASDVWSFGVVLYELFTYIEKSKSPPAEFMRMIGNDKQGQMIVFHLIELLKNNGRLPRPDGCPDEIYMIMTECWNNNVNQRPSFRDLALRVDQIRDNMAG
Sequence of JAK2/JAK2 homdimeric complex (P32927 17-897 partner): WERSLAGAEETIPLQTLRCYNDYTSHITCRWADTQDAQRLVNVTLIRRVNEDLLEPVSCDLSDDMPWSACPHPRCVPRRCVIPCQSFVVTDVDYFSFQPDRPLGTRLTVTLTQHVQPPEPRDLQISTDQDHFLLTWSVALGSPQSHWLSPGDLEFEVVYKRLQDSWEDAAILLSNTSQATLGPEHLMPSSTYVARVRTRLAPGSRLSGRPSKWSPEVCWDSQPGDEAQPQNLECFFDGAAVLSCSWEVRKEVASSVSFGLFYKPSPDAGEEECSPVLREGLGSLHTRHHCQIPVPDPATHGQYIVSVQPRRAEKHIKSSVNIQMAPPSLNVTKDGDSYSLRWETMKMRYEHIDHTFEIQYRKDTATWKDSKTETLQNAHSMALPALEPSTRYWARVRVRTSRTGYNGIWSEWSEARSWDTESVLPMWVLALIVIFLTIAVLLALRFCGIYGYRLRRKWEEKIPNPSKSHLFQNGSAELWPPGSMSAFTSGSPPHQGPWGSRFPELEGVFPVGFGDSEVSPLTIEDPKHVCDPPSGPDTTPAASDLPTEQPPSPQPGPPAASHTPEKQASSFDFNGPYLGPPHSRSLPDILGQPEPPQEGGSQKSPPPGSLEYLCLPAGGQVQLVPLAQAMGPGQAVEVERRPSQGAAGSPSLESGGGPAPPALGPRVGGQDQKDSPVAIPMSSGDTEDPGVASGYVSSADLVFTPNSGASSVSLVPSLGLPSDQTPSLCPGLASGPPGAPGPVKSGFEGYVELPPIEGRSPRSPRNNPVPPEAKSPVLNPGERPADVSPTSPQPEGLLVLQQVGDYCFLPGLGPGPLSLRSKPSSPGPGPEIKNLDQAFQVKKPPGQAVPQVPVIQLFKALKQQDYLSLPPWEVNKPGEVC

JAK2 kinase domain (JH1) = JAK2 kinase domain (JH1) (Homo sapiens (Human), UniProt O60674); assay: JAK2 Radioactive Kinase Assay; assay type: biochemical; details: for inhibition at 10 µM: read-out: JAK2 JH1% Inhibition @ 10 μM
Sequence of JAK2 kinase domain (JH1) (O60674 849-1124): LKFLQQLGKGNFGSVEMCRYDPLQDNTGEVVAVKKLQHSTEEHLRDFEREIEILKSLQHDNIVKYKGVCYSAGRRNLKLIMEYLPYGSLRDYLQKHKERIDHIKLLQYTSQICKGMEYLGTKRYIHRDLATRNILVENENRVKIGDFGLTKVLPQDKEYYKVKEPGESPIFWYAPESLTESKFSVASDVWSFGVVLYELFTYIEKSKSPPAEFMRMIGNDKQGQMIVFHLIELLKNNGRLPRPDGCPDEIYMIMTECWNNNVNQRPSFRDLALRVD
How it was run: (§1)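 Single-point screen: 10 μM test compound, radioactive kinase read-out, percent inhibition reported for each kinase domain.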

Tyk2 kinase domain (DH1) = Tyk2 kinase domain (DH1) (Homo sapiens (Human), UniProt P29597); assay: Tyk2 Radioactive Kinase Assay; assay type: biochemical; details: for inhibition at 10 µM: read-out: Tyk2 JH1% Inhibition @ 10 μM
Sequence of Tyk2 kinase domain (DH1) (P29597 897-1176): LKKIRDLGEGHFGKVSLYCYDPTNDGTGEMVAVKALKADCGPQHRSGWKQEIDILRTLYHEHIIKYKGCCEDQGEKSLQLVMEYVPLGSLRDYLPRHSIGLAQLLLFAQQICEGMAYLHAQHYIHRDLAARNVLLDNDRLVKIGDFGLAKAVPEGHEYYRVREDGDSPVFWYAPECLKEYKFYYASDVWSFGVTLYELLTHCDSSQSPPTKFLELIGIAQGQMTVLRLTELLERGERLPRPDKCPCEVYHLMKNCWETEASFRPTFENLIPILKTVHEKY
How it was run: as §1

Sequence of human TYK2 (JH2domain-pseudokinase) (P29597 556-888): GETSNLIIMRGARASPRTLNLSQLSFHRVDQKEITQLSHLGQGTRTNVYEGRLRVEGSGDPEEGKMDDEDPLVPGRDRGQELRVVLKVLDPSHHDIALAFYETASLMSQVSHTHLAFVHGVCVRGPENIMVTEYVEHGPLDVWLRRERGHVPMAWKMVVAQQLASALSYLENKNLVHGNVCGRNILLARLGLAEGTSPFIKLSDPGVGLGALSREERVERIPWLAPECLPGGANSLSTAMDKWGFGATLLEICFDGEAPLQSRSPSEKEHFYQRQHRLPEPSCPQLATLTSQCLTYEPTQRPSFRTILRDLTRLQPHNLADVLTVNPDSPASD

SMILES	Kd [1] [nM]	IC50 [2] [nM]	IC50 [3] [nM]	inhibition at 10 µM (JAK2 kinase domain (JH1); compound at 10 μM, ATP 10 μM) [%]	inhibition at 10 µM (Tyk2 kinase domain (DH1); compound at 10 μM, ATP 10 μM) [%]	inhibition at 10 µM (JAK2 kinase domain (JH1); 10 μM compound, 10 μM ATP) [%]	inhibition at 10 µM (Tyk2 kinase domain (DH1); 10 μM compound, 10 μM ATP) [%]	JAK2 JH1% Inhibition @ 10 μM (JAK2 kinase domain (JH1); compound at 10 μM, ATP 10 μM)	Tyk2 JH1% Inhibition @ 10 μM (Tyk2 kinase domain (DH1); compound at 10 μM, ATP 10 μM)
CNc1cc(Nc2cc(Cl)cn(-c3ccnc(C)n3)c2=O)nc2c(C(=O)N[C@H]3C[C@H]3F)cnn12 [I-317]	< 0.2	< 100	> 2500	< 50	< 50	–	–	–	–
CNc1cc(Nc2cc(C)cn(-c3ccn(C)n3)c2=O)nc2c(C(=O)N[C@H]3C[C@H]3F)cnn12 [I-250]	< 0.2	< 100	> 12500	< 50	< 50	–	–	–	–
CNc1cc(-c2cn(C3CC3)c3ncccc23)nc2c(C(=O)NC3CC3)cnn12 [I-960, N-cyclopropyl-5-(1-cyclopropyl-1H-pyrrolo[2,3-b]pyridin-3-yl)-7-(methylamino)pyrazolo[1,5-a]pyrimidine-3-carboxamide]	< 0.2	< 100	> 50000	–	–	< 50	< 50	–	–
CNc1cc(-c2cn(C(C)C)c3ncccc23)nc2c(C(=O)N[C@H]3CC[C@@H]3O)cnn12 [I-639]	< 0.2	< 100	> 12500	–	–	–	–	A (percent inhibition at 10 μM lower than 50)	A (percent inhibition at 10 μM lower than 50)
CNc1cc(Nc2cccn(-c3ncc(C)s3)c2=O)nc2c(C(=O)NC3CC3)cnn12 [I-261, N-cyclopropyl-7-(methylamino)-5-((1-(5-methylthiazol-2-yl)-2-oxo-1,2-dihydropyridin-3-yl)amino)pyrazolo[1,5-a]pyrimidine-3-carboxamide]	0.2 to 1	< 100	> 2500	< 50	< 50	–	–	–	–
CNc1cc(Nc2cccn(-c3cnc(C(C)(C)O)cn3)c2=O)nc2c(C(=O)NC3CCC3)cnn12 [I-95]	< 0.2	< 100	> 50000	< 50	< 50	–	–	–	–
CNc1cc(Nc2cccn(-c3cnco3)c2=O)nc2c(C(=O)N[C@@H]3C[C@@H]3F)cnn12 [I-762]	< 0.2	< 100	> 2500	< 50	< 50	–	–	–	–
[2H]C([2H])([2H])Oc1ncc(C)cc1Nc1cc(NC)n2ncc(C(=O)N[C@H]3C[C@H]3F)c2n1 [I-259]	< 0.2	< 100	> 12500	< 50	< 50	–	–	–	–
CNc1cc(Nc2cccn(-c3ccccn3)c2=O)nc2c(C(=O)N[C@H]3C[C@H]3F)cnn12 [I-681]	< 0.2	< 100	> 12500	< 50	< 50	–	–	–	–
CNc1cc(Nc2cccn(-c3cc(C)on3)c2=O)nc2c(C(=O)N[C@H]3C[C@H]3F)cnn12 [I-161]	< 0.2	< 100	> 12500	< 50	< 50	–	–	–	–
CNc1cc(Nc2cccn([C@H]3CC[C@H](OC)CC3)c2=O)nc2c(C(=O)N[C@@H]3CC[C@H]3O)cnn12 [I-635]	< 0.2	< 100	> 50000	< 50	< 50	–	–	–	–
CNc1cc(Nc2cccc(N3CCOCC3)n2)nc2c(C(=O)N[C@H]3C[C@H]3F)cnn12 [I-590]	< 0.2	< 100	> 12500	50 to 70	< 50	–	–	–	–
CNc1cc(Nc2cc(Cl)cn(-c3ccn(C)n3)c2=O)nc2c(C(=O)NC3CC3)cnn12 [I-310]	< 0.2	< 100	> 2500	< 50	< 50	–	–	–	–
CNc1cc(Nc2cccn([C@@H]3CCCOC3)c2=O)nc2c(C(=O)N[C@H]3CC[C@H]3O)cnn12 [I-751]	< 0.2	< 100	> 12500	< 50	< 50	–	–	–	–
CNc1cc(Nc2cc(Cl)cn(-c3ccc(C)nn3)c2=O)nc2c(C(=O)N[C@H]3C[C@H]3F)cnn12 [I-164]	< 0.2	< 100	> 50000	< 50	< 50	–	–	–	–
CNc1cc(Nc2cccn(-c3cccc(C(C)(C)O)n3)c2=O)nc2c(C(=O)N[C@H]3C[C@H]3F)cnn12 [I-123]	< 0.2	< 100	> 50000	< 50	< 50	–	–	–	–
CNc1cc(Nc2cccnc2OC2CC2)nc2c(C(=O)N[C@H]3C[C@H]3F)cnn12 [I-217]	< 0.2	< 100	> 50000	< 50	< 50	–	–	–	–
CNc1cc(Nc2cc(Cl)cn(-c3cnc(C(=O)N(C)C)cn3)c2=O)nc2c(C(=O)N[C@H]3C[C@H]3F)cnn12 [I-319]	< 0.2	< 100	> 2500	< 50	< 50	–	–	–	–
CNc1cc(Nc2cccn(C3CCC4(CC3)OCCO4)c2=O)nc2c(C(=O)NC3CC3)cnn12 [I-393]	< 0.2	< 100	> 12500	< 50	< 50	–	–	–	–
CNc1cc(Nc2cc(Cl)cn(-c3ccn(C4CC4)n3)c2=O)nc2c(C(=O)NC3CC3)cnn12 [I-331]	< 0.2	< 100	> 12500	< 50	< 50	–	–	–	–
CNc1cc(Nc2cccn([C@H]3CC[C@H](OC)CC3)c2=O)nc2c(C(=O)N[C@H]3CC[C@H]3O)cnn12 [I-539]	< 0.2	< 100	> 50000	< 50	< 50	–	–	–	–

Continued, in another order:

Kd [1] [nM]	IC50 [2] [nM]	IC50 [3] [nM]	inhibition at 10 µM (JAK2 kinase domain (JH1); compound at 10 μM, ATP 10 μM) [%]	inhibition at 10 µM (Tyk2 kinase domain (DH1); compound at 10 μM, ATP 10 μM) [%]	inhibition at 10 µM (JAK2 kinase domain (JH1); 10 μM compound, 10 μM ATP) [%]	inhibition at 10 µM (Tyk2 kinase domain (DH1); 10 μM compound, 10 μM ATP) [%]	SMILES	JAK2 JH1% Inhibition @ 10 μM (JAK2 kinase domain (JH1); compound at 10 μM, ATP 10 μM)	Tyk2 JH1% Inhibition @ 10 μM (Tyk2 kinase domain (DH1); compound at 10 μM, ATP 10 μM)
< 0.2	< 100	> 12500	< 50	< 50	–	–	CNc1cc(Nc2cccn(-c3cnn(CC4CCOCC4)c3)c2=O)nc2c(C(=O)N[C@H]3C[C@H]3F)cnn12 [I-407]	–	–
< 0.2	< 100	> 50000	50 to 70	< 50	–	–	[2H]C([2H])([2H])Nc1cc(Nc2cccnc2OC2CC2)nc2c(C(=O)N[C@@H]3C[C@@H]3F)cnn12 (stereo in doubt) [I-375, 5-((2-cyclopropoxypyridin-3-yl)amino)-N-((1R,2S)-2-fluorocyclopropyl)-7-((methyl-d3)amino)pyrazolo[1,5-a]pyrimidine-3-carboxamide]	–	–
< 0.2	< 100	> 50000	< 50	< 50	–	–	CNc1cc(Nc2cc(F)cc(F)c2F)nc2c(C(=O)NC3CC3)cnn12 [I-5]	–	–
< 0.2	< 100	> 2500	< 50	< 50	–	–	CNc1cc(Nc2cccn(-c3ccc(F)cc3)c2=O)nc2c(C(=O)N[C@H]3C[C@H]3F)cnn12 [I-132]	–	–
0.2 to 1	< 100	> 12500	50 to 70	< 50	–	–	CNc1cc(Nc2cccnc2OC(F)F)nc2c(C(=O)NC3CC3)cnn12 [I-154]	–	–
< 0.2	< 100	> 50000	< 50	< 50	–	–	CNc1cc(Nc2cccnc2OC2CC2)nc2c(C(=O)NCC3(CO)CC3)cnn12 [I-426]	–	–
< 0.2	< 100	> 50000	< 50	< 50	–	–	CNc1cc(Nc2cccnc2OC2CC2)nc2c(C(=O)N[C@@H]3CC[C@H]3O)cnn12 (stereo in doubt) [I-366, 5-((2-cyclopropoxypyridin-3-yl)amino)-N-((1R,2R)-2-hydroxycyclobutyl)-7-(methylamino)pyrazolo[1,5-a]pyrimidine-3-carboxamide]	–	–
< 0.2	< 100	> 50000	< 50	< 50	–	–	CNc1cc(Nc2cccn([C@H]3CCCOC3)c2=O)nc2c(C(=O)NC3CC3)cnn12 [I-352]	–	–
< 0.2	< 100	> 300	< 50	< 50	–	–	CNc1cc(Nc2cc(Cl)cn([C@H]3CCCOC3)c2=O)nc2c(C(=O)N[C@@H]3C[C@@H]3F)cnn12 [I-772]	–	–
< 0.2	< 100	> 2500	< 50	< 50	–	–	CNc1cc(Nc2cccn([C@H]3CC[C@H](OC)CC3)c2=O)nc2c(C(=O)NCC(C)(C)CO)cnn12 [I-544]	–	–
< 0.2	< 100	> 2500	< 50	< 50	–	–	CNc1cc(Nc2cc(Cl)cn(-c3cnc(C(=O)N(C)C)cn3)c2=O)nc2c(C(=O)NC3CC3)cnn12 [I-318]	–	–
< 0.2	< 100	> 50000	< 50	< 50	–	–	CNc1cc(Nc2cccnc2OC2CC2)nc2c(C(=O)NC3CCC3O)cnn12 (stereo not drawn) [I-392, 5-((2-cyclopropoxypyridin-3-yl)amino)-N-(2-hydroxycyclobutyl)-7-(methylamino)pyrazolo[1,5-a]pyrimidine-3-carboxamide]	–	–

Source: patent publication US10508120B2, “TYK2 inhibitors and uses thereof” (Nimbus Lakshmi, Inc., priority 2017, dated 2019)
